From article PMC6943918 (The Biochemical journal, 2014) come the findings set out here.

This test addresses T1, ZmTenA_E (maize TenA_E, GRMZM2G080501) (Zea mays, UniProt B6TPF2).
T1 sequence (B6TPF2 1-224): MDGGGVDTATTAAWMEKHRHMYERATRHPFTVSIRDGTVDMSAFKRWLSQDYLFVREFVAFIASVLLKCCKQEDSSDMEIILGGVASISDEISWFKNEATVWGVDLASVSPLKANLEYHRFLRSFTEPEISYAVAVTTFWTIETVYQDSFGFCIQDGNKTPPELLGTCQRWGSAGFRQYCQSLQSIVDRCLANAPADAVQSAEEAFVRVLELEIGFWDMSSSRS
Put plainly: HPLC-UV. It counts as biochemical. Conditions: amino-HMP aminohydrolase; 100 nmol substrate, 50 μg enzyme, 4 h, 30°C.

In the case of `Cc1ncc(CN)c(N)n1` [Amino-HMP, 4-amino-5-aminomethyl-2-methylpyrimidine], the “HPLC-UV (235 nm) hydrolysis assay” value is reported as “both plant TenA_E proteins had some activity against amino-HMP”.
